In patent US9556148B2, “N-cyanomethylamides as inhibitors of janus kinase” (CADILA HEALTHCARE LIMITED, priority 2013, dated 2017):

Key:
[1] = target: recombinant purified human JAK3 (Homo sapiens (Human), UniProt P52333); assay: in vitro JAK kinase assay on ADP Glo platform, JAK3; format: biochemical; settings: 50 μM ATP, 1 hr at room temperature; read-out: JAK-3 IC50
Protocol: (§1) NCEs were screened using in vitro JAK (1, 2 and 3) kinase assay on ADP Glo platform (Promega). Fixed amount of recombinant purified human JAK (25 ng of JAK1 and 10 ng of JAK2 and JAK3 per reaction, from Life Technologies Ltd) were incubated with increasing concentration of NCEs in 1× kinase reaction buffer (40 mM Tris-Cl, pH7.5, 20 mM MgCl2, 0.1 mg/ml BSA and 50 μM DTT). Enzymatic reaction was initiated by adding a substrate cocktail containing 50 μM of ATP (final concentration) and 5 μg for JAK1 and 2.5 μg for JAK2 and JAK3 of polyGln4Tyr1 (Signal Chem) in total 25 μl of reaction in 96 well plate. The reaction was incubated at room temperature for 1 hr.
(§2) After 1 hr of incubation equal volume (25 μl per reaction) of ADP Glo was added and incubated at room temperature for 40 min.
(§3) This was followed by addition of kinase detection reagent (50 μl per reaction) and incubation at room temperature for 30 min. Finally, plate was read for luminescence at an integration time of 500 millisecond per well.
(§4) Data were plotted taking Enzyme with no inhibitor set as the 100% kinase activity. IC50 values were calculated using Graph Pad Prism software.

[2] = target: recombinant purified human JAK2 (Homo sapiens (Human), UniProt O60674); assay: in vitro JAK kinase assay on ADP Glo platform, JAK2; format: biochemical; settings: 50 μM ATP, 1 hr at room temperature; read-out: JAK-2 IC50
Protocol: as §1, §2, §3, §4

[3] = target: recombinant purified human JAK1 (Homo sapiens (Human), UniProt P23458); assay: in vitro JAK kinase assay on ADP Glo platform, JAK1; format: biochemical; settings: 50 μM ATP, 1 hr at room temperature
Protocol: as §1, §2, §3, §4

[4] = test system: PGPS arthritis, PAW inflammation; assay: Peptidogylcan Polysaccharide Polymers (PGPS) arthritis; format: in vivo, Sprague dawley rats; settings: rats, values for day 16
Protocol: Female Sprague dawley rats were primed with an intra-articular injection of 20 μl of PGPS at 0.5 mg/ml of rhamnose in the right ankle. At 2 weeks the ankle diameters were measured with plethysmometer and rats assigned to groups of similar distribution of initial joint diameters. Rats then received their first dose of compound followed 1 h later by an i.v. injection of 0.5 ml of PGPS (0.5 mg/ml of rhamnose) in the tail vein. Compounds were dosed at 10 mg/kg and ankle diameters measured for 3 days [i.e. day 15, 16, 17]. Values are given for day 16.

JAK-3 = JAK-3 (Homo sapiens (Human), UniProt P52333); settings: reported in WO 2008109943; read-out: reported in vitro JAK-3 inhibition; cited from earlier work
JAK 2 = JAK 2 (Homo sapiens (Human), UniProt O60674); settings: reported in WO 2008109943; read-out: reported in vitro JAK 2 inhibition; cited from earlier work
JAK 2, sequence (O60674 whole entry, species assumed): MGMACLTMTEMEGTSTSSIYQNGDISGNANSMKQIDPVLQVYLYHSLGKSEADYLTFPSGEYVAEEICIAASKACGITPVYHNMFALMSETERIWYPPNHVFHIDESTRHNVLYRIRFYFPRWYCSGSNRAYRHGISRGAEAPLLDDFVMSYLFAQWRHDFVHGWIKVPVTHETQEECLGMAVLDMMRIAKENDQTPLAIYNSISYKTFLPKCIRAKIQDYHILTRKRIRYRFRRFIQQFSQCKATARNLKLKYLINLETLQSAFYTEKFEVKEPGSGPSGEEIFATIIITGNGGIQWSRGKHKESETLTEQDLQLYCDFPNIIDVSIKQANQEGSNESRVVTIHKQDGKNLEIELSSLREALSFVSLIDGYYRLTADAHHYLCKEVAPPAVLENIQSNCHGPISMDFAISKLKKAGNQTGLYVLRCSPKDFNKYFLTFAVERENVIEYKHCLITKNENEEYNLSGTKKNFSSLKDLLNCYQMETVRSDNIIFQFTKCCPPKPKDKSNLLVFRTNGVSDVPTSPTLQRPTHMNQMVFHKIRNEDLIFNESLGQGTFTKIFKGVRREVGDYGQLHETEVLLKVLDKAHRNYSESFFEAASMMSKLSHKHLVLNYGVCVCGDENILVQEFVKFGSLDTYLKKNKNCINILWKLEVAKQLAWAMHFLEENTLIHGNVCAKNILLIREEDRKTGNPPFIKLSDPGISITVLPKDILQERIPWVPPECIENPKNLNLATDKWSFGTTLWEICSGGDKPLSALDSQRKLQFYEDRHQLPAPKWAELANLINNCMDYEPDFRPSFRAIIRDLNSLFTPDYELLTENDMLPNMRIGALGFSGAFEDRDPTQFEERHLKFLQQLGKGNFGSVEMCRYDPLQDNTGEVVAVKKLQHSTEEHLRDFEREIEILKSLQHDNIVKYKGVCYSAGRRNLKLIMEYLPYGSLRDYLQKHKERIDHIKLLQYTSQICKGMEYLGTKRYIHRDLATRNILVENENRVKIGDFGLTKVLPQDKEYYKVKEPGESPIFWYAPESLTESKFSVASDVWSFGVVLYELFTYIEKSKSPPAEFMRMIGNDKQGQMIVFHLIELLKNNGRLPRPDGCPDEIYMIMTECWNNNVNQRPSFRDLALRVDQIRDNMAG

recombinant purified human JAK3, sequence (P52333 whole entry): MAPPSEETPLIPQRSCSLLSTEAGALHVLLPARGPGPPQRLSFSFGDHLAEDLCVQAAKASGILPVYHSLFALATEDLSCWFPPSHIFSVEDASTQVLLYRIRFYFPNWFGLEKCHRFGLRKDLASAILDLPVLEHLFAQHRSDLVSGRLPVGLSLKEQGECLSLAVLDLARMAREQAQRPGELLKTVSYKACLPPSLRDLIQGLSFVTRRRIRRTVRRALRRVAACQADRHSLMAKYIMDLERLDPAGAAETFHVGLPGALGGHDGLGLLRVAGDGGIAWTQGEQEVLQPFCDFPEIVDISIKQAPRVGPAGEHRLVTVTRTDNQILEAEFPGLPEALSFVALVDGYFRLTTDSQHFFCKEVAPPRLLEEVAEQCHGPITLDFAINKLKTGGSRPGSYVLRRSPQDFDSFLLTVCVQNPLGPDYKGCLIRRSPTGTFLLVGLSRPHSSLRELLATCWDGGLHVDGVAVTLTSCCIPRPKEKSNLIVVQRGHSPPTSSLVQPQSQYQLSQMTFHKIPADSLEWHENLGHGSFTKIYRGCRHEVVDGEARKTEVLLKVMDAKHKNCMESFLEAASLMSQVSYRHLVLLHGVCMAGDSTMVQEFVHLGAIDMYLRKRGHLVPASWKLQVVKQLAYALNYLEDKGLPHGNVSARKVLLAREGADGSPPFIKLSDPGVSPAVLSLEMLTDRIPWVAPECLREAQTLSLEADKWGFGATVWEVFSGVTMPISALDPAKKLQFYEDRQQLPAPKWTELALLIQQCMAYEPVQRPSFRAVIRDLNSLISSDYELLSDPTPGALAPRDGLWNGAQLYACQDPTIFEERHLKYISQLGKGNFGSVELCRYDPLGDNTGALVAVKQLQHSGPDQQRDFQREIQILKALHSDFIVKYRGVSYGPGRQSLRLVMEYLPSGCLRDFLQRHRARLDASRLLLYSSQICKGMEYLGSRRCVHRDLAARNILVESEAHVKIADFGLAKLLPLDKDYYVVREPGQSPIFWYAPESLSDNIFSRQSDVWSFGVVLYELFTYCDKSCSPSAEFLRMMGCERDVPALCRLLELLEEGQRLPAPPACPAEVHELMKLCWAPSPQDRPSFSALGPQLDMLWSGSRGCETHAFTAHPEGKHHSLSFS
recombinant purified human JAK1, sequence (P23458 whole entry): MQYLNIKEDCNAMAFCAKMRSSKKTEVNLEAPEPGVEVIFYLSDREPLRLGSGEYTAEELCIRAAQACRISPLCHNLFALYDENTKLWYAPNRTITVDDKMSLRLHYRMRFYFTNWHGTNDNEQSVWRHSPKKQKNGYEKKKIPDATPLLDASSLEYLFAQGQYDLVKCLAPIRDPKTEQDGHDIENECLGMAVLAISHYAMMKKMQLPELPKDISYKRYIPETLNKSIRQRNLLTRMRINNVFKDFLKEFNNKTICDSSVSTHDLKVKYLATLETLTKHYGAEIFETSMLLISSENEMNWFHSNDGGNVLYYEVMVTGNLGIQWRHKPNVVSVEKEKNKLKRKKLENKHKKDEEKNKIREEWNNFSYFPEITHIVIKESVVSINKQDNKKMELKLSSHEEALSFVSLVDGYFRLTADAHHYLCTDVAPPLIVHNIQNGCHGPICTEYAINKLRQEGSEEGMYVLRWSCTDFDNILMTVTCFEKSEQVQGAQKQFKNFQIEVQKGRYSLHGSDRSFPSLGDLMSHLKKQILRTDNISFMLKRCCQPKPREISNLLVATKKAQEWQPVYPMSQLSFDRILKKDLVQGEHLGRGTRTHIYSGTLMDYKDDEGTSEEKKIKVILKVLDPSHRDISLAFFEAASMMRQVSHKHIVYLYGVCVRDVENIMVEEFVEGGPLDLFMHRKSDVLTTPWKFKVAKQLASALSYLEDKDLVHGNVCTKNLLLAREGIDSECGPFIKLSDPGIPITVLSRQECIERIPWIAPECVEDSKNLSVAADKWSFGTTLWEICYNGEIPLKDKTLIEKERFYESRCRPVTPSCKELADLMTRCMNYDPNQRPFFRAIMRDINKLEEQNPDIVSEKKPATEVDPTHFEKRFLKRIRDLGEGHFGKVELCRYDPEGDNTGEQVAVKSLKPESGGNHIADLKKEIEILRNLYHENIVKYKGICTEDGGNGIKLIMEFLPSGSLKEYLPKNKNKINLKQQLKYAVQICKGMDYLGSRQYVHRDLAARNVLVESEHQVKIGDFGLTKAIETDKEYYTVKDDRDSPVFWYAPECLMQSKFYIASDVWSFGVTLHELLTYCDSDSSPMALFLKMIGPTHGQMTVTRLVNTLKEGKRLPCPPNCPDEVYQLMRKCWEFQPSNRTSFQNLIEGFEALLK
recombinant purified human JAK2, sequence (O60674 whole entry): as the sequence (O60674 whole entry, species assumed) above
JAK-3, sequence (P52333 whole entry, species assumed): as the sequence (P52333 whole entry) above

IC50 [1] [nM]	IC50 [2] [nM]	IC50 [3] [nM]	SMILES	% Reduction in PAW inflammation at dose 10 mg/Kg [4] [%]	IC50 (JAK-3) [nM]	IC50 (JAK 2) [nM]
23	5	5	N#CCNC(=O)c1ccc(-c2ccnc(Nc3ccc(N4CCC(N5CCC6(CCCO6)CC5)CC4)cc3)n2)cc1 [Example 24, 4-(2-((4-(4-(1-oxa-8-azaspiro[4.5]decan-8-yl)piperidin-1-yl)phenyl)amino)pyrimidin-4-yl)-N-(cyanomethyl)benzamide]	41	–	–
56	21	15	N#CCNC(=O)c1ccc(-c2ccnc(Nc3ccc(N4CCC(c5n[nH]c(=O)o5)CC4)cc3)n2)cc1 [Example 29, N-(cyanomethyl)-4-(2-((4-(4-(5-oxo-4,5-dihydro-1,3,4-oxadiazol-2-yl)piperidin-1-yl)phenyl)amino)pyrimidin-4-yl)benzamide]	43	–	–
–	–	–	N#CCNC(=O)c1ccc(-c2ccnc(Nc3ccc(ON4CCC(N5CCCC5)CC4)cc3)n2)cc1 [compounds 2]	–	< 20000	< 1000
